# Experiments:
# Type in all cases: cell-based, Human
# [1] = system: UACC-257; assay: NCI antiproliferative SRB assay, Melanoma panel
# [2] = system: RXF 393; assay: NCI antiproliferative SRB assay, Renal Cancer panel
# [3] = system: CNS Cancer cell line panel; assay: NCI antiproliferative assay, panel summary
# [4] = system: M14; assay: NCI antiproliferative SRB assay, Melanoma panel
# [5] = system: OVCAR-8; assay: NCI antiproliferative SRB assay, Ovarian Cancer panel
# [6] = system: NCI-H226; assay: NCI antiproliferative SRB assay, Non-Small Cell Lung Cancer panel
# [7] = system: MDA-MB-468; assay: NCI antiproliferative SRB assay, Breast Cancer panel
# Procedure: The antiproliferative activity of tested compounds was done against five dozen (60) cancer cell lines derived from nine different panels. All of the compounds were evaluated for antiproliferative activity in a single dose at 10 µM. Growth percent (GP) and percent growth inhibition (% GI) were used to calculate antiproliferative activity. […] The antiproliferative results of five-dose assay were calculated as three dose related parameters like, 50% growth inhibition (GI50), 50% lethal concentration (LC50), and total growth inhibition TGI [43, 44, 45, 46, 47].
# Human tumor cell lines were grown in RPMI 1640 medium containing 5% fetal bovine serum and 2 mM L-glutamine. For a typical screening experiment, cells were inoculated into 96-well microtiter plates in 100 µL at plating densities ranging from 5000 to 40,000 cells/well, depending on the doubling time of individual cell lines. Two plates of each cell line were fixed in situ with trichloroacetic acid (TCA) after 24 h to represent a cell population measurement for each cell line at the time of drug addition (Ti). The experimental drugs were frozen after being solubilized in dimethyl sulfoxide at 400-fold the desired final maximum test concentration. An aliquot of frozen concentrate was thawed and diluted to twice the desired final maximum test concentration with medium containing 50 µg/mL gentamicin at the time of drug addition. Additional four, 10-fold, or ½ log serial dilutions serial dilutions were performed to provide a total of five drug concentrations plus the control. Aliquots of 100 µL of these different drug dilutions were added to the appropriate microtiter wells already containing 100 µL of medium, resulting in the required final drug concentrations. Following drug addition, the plates are incubated for an additional 48 h at 37 °C, 5% CO2, 95% air, and 100% relative humidity. For adherent cells, the assay is terminated by the addition of cold TCA. Cells are fixed in situ by the gentle addition of 50 µL of cold 50% (w/v) TCA (final concentration, 10% TCA) and incubated for 60 min at 4 °C. The supernatant is discarded, and the plates are washed five times with tap water and air dried. Sulforhodamine B (SRB) solution (100 µL) at 0.4% (w/v) in 1% acetic acid was added to each well, and plates were incubated for 10 min at room temperature. After staining, unbound dye was removed by washing five times with 1% acetic acid and the plates were air dried. Bound stain was subsequently solubilized with 10 mM trizma base, and the absorbance was read on an automated plate reader at a wavelength of 515 nm. For suspension cells, the methodology was the same except that the assay was terminated by fixing settled cells at the bottom of the wells by gently adding 50 µL of 80% TCA (final concentration, 16% TCA). […]
# Antiproliferative activity
# The anticancer screening was carried ou t as per the NCI US protocol. Using the seven absorbance measurements (time zero, (Ti), control growth, (C), and test growth in the presence of drug at the five concentration levels (Tf)), the percentage growth was calculated at each of the drug concentrations level as [( Tf−Ti × 100 for concentrations for which Tf ≥ Ti, and Tf−Ti × 100 for […]
# concentrations for which Tf < Ti.
# Three-dose response parameters (GI50, TGI, and LC50) were calculated for each of the experimental agents. Growth inhibition of 50% (GI50) was calculated from 100 × Tf−Ti = 50, , which was […]
# the drug concentration resulting in a 50% reduction in the net protein increase (as measured by sulforhodamine B, SRB staining) in control cells during the drug incubation. The total growth inhibition (TGI) was calculated from Tf = Ti, which was the drug concentration resulting in total growth inhibition and signified the cytostatic effect. The LC50 was calculated from 100 × Tf−Ti = −50, , indicating a net loss […]
# of cells following treatment which indicated the concentration of drug resulting in a 50% reduction in the […]
# [8] = system: KM12; assay: NCI antiproliferative SRB assay, Colon Cancer panel
# [9] = system: HCT-116; assay: as above
# [10] = system: HOP-62; assay: NCI antiproliferative SRB assay, Non-Small Cell Lung Cancer panel
# [11] = system: BT-549; assay: NCI antiproliferative SRB assay, Breast Cancer panel
# [12] = system: RPMI-8226; assay: NCI antiproliferative SRB assay, Leukemia panel
# [13] = system: SF-539; assay: NCI antiproliferative SRB assay, CNS Cancer panel
# [14] = system: COLO 205; assay: NCI antiproliferative SRB assay, Colon Cancer panel
# [15] = system: 786–0; assay: NCI antiproliferative SRB assay, Renal Cancer panel
# [16] = Homo sapiens, 5-dose 0.01-100 µM
# [17] = Homo sapiens, 5-dose 0.01-100 µM, read-out: LC50 (the source's name)
smiles,measurement,setting,value
COc1cc(/C=C/c2cc(/C=C/c3ccc(O)c(OC)c3)n(C(=O)Nc3ccc(C(F)(F)F)cc3)n2)ccc1O [3c],TGI,[1]; 5-dose 0.01-100 µM,14.0 µM
same,GI50,[1]; [16],4.01 µM
same,CC50,[1]; [17],42 µM
same,%GI,[1]; one dose 10 µM,74.99%
same,GP (growth percent),[1]; one dose 10 µM,25.01
same,TGI,[2]; 5-dose 0.01-100 µM,3.73 µM
same,GI50,[2]; [16],1.98 µM
same,%GI,[2]; one dose 10 µM,77.34%
same,GP (growth percent),[2]; one dose 10 µM,22.66
same,Mean % GI,[3]; 10 µM,53.38%
same,Selectivity Ratio (MID a:MID b),[3]; 5-dose assay,1.02
same,GI50,"[3]; Homo sapiens, 5-dose assay, read-out: Sub Panel MID b (mean GI50 of panel)",2.78 µM
same,TGI,[4]; 5-dose 0.01-100 µM,4.08 µM
same,GI50,[4]; [16],1.94 µM
same,CC50,[4]; [17],8.58 µM
same,%GI,[4]; one dose 10 µM,70.52%
same,GP (growth percent),[4]; one dose 10 µM,29.48
same,TGI,[5]; 5-dose 0.01-100 µM,>100 µM
same,GI50,[5]; [16],3.33 µM
same,CC50,[5]; [17],> 100 µM
same,%GI,[5]; one dose 10 µM,99.57%
same,GP (growth percent),[5]; one dose 10 µM,0.43
same,TGI,[6]; 5-dose 0.01-100 µM,27.6 µM
same,GI50,[6]; [16],7.29 µM
same,CC50,[6]; [17],91.7 µM
same,%GI,[6]; one dose 10 µM,17.33%
same,GP (growth percent),[6]; one dose 10 µM,82.67
same,LC50 (50% lethal concentration),"[7]; Homo sapiens, MDA-MB-468, read-out: LC50",> 100 µM
same,GI50,"[7]; Homo sapiens, MDA-MB-468, 5-dose 0.01-100 µM",2.3 µM
same,TGI,"[7]; MDA-MB-468, 5-dose 0.01-100 µM",6.25 µM
same,%GI,"[7]; MDA-MB-468, one dose 10 µM",56.21%
same,GP (growth percent),"[7]; MDA-MB-468, one dose 10 µM",43.79
same,TGI,[8]; 5-dose 0.01-100 µM,5.59 µM
same,GI50,[8]; [16],2.33 µM
same,CC50,[8]; [17],54 µM
same,%GI,[8]; one dose 10 µM,58.62%
same,GP (growth percent),[8]; one dose 10 µM,41.38
same,TGI,[9]; 5-dose 0.01-100 µM,2.94 µM
same,GI50,[9]; [16],1.51 µM
same,CC50,[9]; [17],5.7 µM
same,%GI,[9]; one dose 10 µM,153.67%
same,GP (growth percent),[9]; one dose 10 µM,−53.67
same,TGI,[10]; 5-dose 0.01-100 µM,16.2 µM
same,GI50,[10]; [16],3.6 µM
same,CC50,[10]; [17],> 100 µM
same,%GI,[10]; one dose 10 µM,37.13%
same,GP (growth percent),[10]; one dose 10 µM,62.87
same,TGI,[11]; 5-dose 0.01-100 µM,3.67 µM
same,GI50,[11]; [16],1.96 µM
same,CC50,[11]; [17],6.86 µM
same,%GI,[11]; one dose 10 µM,81.03%
same,GP (growth percent),[11]; one dose 10 µM,18.97
same,TGI,[12]; 5-dose 0.01-100 µM,6.59 µM
same,GI50,[12]; [16],2.09 µM
same,CC50,[12]; [17],> 100 µM
same,%GI,[12]; one dose 10 µM,100.21%
same,GP (growth percent),[12]; one dose 10 µM,−0.21
same,TGI,[13]; 5-dose 0.01-100 µM,7.45 µM
same,GI50,[13]; [16],2.37 µM
same,CC50,[13]; [17],56 µM
same,%GI,[13]; one dose 10 µM,70.99%
same,GP (growth percent),[13]; one dose 10 µM,29.01
same,TGI,[14]; 5-dose 0.01-100 µM,4.50 µM
same,GI50,[14]; [16],2.05 µM
same,CC50,[14]; [17],9.91 µM
same,%GI,[14]; one dose 10 µM,48.73%
same,GP (growth percent),[14]; one dose 10 µM,51.27
same,TGI,[15]; 5-dose 0.01-100 µM,7.52 µM
same,GI50,[15]; [16],2.42 µM
same,CC50,[15]; [17],> 100 µM
same,%GI,[15]; one dose 10 µM,79.93%
same,GP (growth percent),[15]; one dose 10 µM,20.07

# Source: paper PMC8398451, “Molecular Engineering of Curcumin, an Active Constituent of Curcuma longa L. (Turmeric) of the Family Zingiberaceae with Improved Antiproliferative Activity” (Plants, 2021)
